# In EP0222702A2, “Basic carbonyl derivatives” (CIBA-GEIGY AG, priority 1985, dated 1987):
# Columns and labels:
# [1] = system: Noradrenalin-induzierten Vasokonstriktion, isoliert perfundierten Mesenterialgefässen der Ratte; experiment: Inhibition of noradrenaline-induced vasoconstriction in isolated perfused rat mesenteric vessels; details: in vitro, read-out: Hemmung der Noradrenalin-induzierten Vasokonstriktion (ICso)
# From the text: Die Verbindungen der Formel 1 und deren Salze besitzen wertvolle pharmakologische Eigenschaften, vor allem im cardiovasculären Bereich. Sie wirken als Calcium-Antagonisten und besitzen a-Rezeptoren blockierende sowie Serotonin-antagonistische Eigenschaften, wie sich z.B. in in-vitro-Versuchen an isoliert perfundierten Mesenterialgefässen der Ratte [McGregor, D.: J.Physiol. 177, 21-30, (1965)] als Hemmung der Kalium-,Noradrenalin-und Serotonin-induzierten Vasokonstriktion, beispielsweise unter Verwendung von 2,6-Dimethyl-4-(3-nitrophenyl)-1,4-dihydropyridin-3-carbonsäurmethylester-5-carbonsäure-[2-[4-(p-fluorben- zoyl)-piperidin-1-yl] -1-phenyl]-äthylester (Diastereomerengemisch) bei einer Konzentration von ca. 5 nMol/Liter (IC50) für die Hemmung der Kalium-induzierten Vasokonstriktion, von ca. 4 nMol/Liter (ICso) für die Hemmung der Noradrenalin-induzierten Vasokonstriktion und von ca. 80 nMol/Liter für die Hemmung der Serotonin-induzierten Vasokonstriktion zeigen lässt.
# [2] = target: T1, Dihydropyridin-Rezeptoren (Cavia porcellus, UniProt O35505); experiment: Displacement of 3H-nitrendipine binding from guinea pig heart membranes; design: species or system Meerschweichen; details: membranes of guinea pig hearts, in vitro; read-out: Verdrängung der Bindung von 3H-Nitrendipin, Konzentration (IC50)
# T1 construct: from tissue; host or cells: guinea pig heart membranes
# T1 sequence (O35505 whole entry): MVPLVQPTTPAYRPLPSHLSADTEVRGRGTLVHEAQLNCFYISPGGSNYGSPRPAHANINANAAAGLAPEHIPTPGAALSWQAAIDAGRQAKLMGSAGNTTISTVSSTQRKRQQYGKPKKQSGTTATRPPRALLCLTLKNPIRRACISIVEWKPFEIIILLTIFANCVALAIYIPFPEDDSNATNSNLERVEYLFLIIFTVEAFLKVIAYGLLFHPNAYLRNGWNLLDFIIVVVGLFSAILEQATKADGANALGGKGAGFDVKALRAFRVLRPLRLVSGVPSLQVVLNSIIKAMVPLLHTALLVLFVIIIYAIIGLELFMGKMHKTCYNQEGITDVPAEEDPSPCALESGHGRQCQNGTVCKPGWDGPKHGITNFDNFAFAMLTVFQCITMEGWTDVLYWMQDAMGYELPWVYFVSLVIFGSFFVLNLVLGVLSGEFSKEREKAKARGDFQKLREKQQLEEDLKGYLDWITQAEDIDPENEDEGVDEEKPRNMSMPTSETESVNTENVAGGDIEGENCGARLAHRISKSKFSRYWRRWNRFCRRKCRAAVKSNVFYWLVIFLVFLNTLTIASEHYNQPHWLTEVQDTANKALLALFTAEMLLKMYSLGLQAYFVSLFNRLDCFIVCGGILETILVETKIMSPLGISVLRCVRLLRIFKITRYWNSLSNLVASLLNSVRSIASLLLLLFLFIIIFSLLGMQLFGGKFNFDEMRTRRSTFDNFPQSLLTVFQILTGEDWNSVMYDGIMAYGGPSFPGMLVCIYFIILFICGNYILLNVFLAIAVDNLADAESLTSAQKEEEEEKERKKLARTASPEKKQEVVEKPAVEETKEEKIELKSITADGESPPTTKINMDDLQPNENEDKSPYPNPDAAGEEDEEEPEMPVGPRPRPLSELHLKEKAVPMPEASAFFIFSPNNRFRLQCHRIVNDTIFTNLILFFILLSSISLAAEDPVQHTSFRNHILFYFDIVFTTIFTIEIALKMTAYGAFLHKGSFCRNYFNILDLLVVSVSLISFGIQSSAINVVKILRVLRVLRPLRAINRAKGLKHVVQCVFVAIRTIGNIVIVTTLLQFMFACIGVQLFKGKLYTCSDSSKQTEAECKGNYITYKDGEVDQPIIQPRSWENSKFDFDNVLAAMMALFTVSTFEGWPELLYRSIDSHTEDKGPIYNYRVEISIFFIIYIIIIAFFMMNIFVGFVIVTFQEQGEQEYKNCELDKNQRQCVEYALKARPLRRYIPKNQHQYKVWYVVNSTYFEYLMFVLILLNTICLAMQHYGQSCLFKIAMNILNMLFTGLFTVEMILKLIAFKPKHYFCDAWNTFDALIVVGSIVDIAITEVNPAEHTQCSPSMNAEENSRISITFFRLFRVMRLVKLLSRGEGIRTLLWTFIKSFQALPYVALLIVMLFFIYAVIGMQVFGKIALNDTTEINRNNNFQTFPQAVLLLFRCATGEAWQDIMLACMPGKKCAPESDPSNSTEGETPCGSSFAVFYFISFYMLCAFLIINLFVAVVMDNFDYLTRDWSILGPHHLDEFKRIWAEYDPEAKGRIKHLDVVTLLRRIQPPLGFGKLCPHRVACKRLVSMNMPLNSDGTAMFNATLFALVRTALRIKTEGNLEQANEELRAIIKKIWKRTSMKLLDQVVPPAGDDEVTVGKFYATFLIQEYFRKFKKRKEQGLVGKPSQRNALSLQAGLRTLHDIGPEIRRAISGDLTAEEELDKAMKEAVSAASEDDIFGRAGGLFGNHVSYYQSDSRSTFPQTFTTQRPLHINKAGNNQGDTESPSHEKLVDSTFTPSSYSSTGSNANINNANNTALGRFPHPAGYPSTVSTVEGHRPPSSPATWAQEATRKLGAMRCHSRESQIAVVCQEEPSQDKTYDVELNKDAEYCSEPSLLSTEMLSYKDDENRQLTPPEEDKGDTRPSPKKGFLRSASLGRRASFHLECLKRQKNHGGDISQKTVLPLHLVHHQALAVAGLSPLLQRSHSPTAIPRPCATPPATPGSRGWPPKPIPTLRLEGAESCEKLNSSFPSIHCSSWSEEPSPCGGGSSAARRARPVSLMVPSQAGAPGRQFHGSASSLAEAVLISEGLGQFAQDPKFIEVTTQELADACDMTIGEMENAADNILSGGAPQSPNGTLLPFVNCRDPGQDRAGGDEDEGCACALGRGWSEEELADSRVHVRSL
# From the text: (§1) Ferner lässt sich die Bindung der neuen Verbindungen oder deren Salze an Dihydropyridin-Rezeptoren mittels Verdrängung der Bindung von ^3H-Nitrendipin an Membranen von Meerschweichenherzen in in-vitro-Versuchen [Erne, P. et al,: Biochem. Biophys. Res. Commm., 118, 842-847 (1984)] z.B. unter Verwendung von 2,6-Dimethyl-4-(3-nitrophenyl)-1,4-dihydropyridin-3-carbonsäuremethylester-5-carbonsäure-[2-[4-(p-fluorobenzoyl)-piperidin-1-yl]-1-phenyl] -äthyl ester (Diastereomerengemisch) bei einer Konzentration (IC50) von etwa 0,2 nMol/Liter nachweisen. Ebenso kann die Bindung der erfindungsgemässen Verbindungen an ai-Rezeptoren durch Verdrängung von ^3H-Prazosin aus seinen Bindungsstellen an der Ratten-Cerebralcortex-Membran gemäss der Methodik von P. Greenengass et al., Eur. J. Pharmacol. 55, 323, (1979), bei etwa 300 nMol/Liter in vitro signifikant nachgewiesen werden. Ausserdem lässt sich die Bindung der neuen Verbindungen oder deren Salze an Serotonin-(5HT2)-Rezeptoren mittels Verdrängung der Bindung von ^3H-Ketanserin an Membranen des Rattenhirns [Leysen, J.E. et al.: Molecul. Pharmacol. 21, 301-304, (1982)] z.B. unter Verwendung von 2,6-Dimethyl-4-(3-nitrophenyl)-1,4-dihydropyridin-3-carbonsäuremethylester-5-carbonsäure-[2-[4-(p-fluorbenzoyl)-piperidin-1-yl]-1-phenyl]-äthylester (Diastereomerengemisch) bei einer Konzentration (ICso) von etwa 6,0 nMol/Liter zeigen.
# [3] = target: T2, Serotonin-(5HT2)-Rezeptoren (Rattus norvegicus, UniProt P14842); experiment: Displacement of 3H-ketanserin binding from rat brain membranes; design: species or system Ratten; details: read-out: Verdrängung der Bindung von 3H-Ketanserin, Konzentration (ICso)
# T2 construct: from tissue; host or cells: rat brain membranes
# T2 sequence (P14842 whole entry): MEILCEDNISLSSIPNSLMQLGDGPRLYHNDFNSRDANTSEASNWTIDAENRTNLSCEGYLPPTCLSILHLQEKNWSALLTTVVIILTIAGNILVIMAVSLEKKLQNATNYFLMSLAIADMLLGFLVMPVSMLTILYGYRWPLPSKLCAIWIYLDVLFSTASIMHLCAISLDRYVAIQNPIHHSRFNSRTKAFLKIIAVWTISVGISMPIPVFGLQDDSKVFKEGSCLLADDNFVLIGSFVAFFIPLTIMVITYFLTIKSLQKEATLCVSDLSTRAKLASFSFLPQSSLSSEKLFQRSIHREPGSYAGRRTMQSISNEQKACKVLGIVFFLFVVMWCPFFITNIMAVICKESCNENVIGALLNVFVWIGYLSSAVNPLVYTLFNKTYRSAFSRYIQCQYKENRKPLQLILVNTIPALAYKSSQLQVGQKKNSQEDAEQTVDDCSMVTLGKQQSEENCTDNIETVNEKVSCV
# From the text: as §1
# [4] = system: renal hypertensiven Ratte; experiment: Blood pressure lowering in the renal hypertensive rat; format: in vivo; details: 2 hours after p.o. application of ca. 2,0 mg/kg
# Description: Die neuen Verbindungen oder deren Salze bewirken ferner eine Hemmung der durch Angiotensin 11, durch elektrische Stimulation oder durch Phenylephrin oder Noradrenalin induzierten pressorischen Effekte an der "pithed rat" [J.S. Gillespie: Br.J.Pharmacoi. 30, 78 (1967)] bei einer Dosis von etwa 2 mg/kg, und eine Hemmung der durch Serotonin induzierten pressorischen Effekte bei einer Dosis von etwa 6 mg/kg. Die neuen Verbindungen oder deren Salze wirken ausserdem antihypertensiv, was sich z.B. durch Senkung des Blutdrucks an der renal hypertensiven Ratte [Goldblatt et al.: J.exp.med. 59, 347 (1934)] zeigen lässt. So kann z.B. 2 Stunden nach p.o-Applikation von ca. 2,0 mg/kg 2,6-Dimethyl-4-(3-nitrophenyl)-1,4-dihydropyridin-3-carbonsäuremethylester-5-carbonsäure-[2-[4-(p-fluorbenzoyl)-piperidin-1-yl]-1-phenyl]-äthylester (Diastereomerengemisch) an der renal hypertensiven Ratte eine Blutdrucksenkung von ca. -70 mm Hg beobachtet werden.
smiles,measurement,setting,value
"COC(=O)C1=C(C)NC(C)=C(C(=O)OC(CN2CCC(C(=O)c3ccc(F)cc3)CC2)c2ccccc2)C1c1cccc([N+](=O)[O-])c1 (stereo not shown) [Beispiel 1, 2,6-Dimethyl-4-(3-nitrophenyl)-1,4-dihydropyridin-3-carbonsäuremethylester-5-carbonsäure-[2-[4-(p-fluorbenzoyl)-piperidin-1-yl]-1-phenyl]-äthylester]",IC50,[1],~4 nM
same,IC50,[2],~0.2 nM
same,IC50,[3],~6 nM
same,Blutdrucksenkung,[4],ca. -70 mm Hg
